Results reported in publication PMC12693327, “SERAAK2 as a Serotonin Receptor Ligand: Structural and Pharmacological In Vitro and In Vivo Evaluation” (Molecules, 2025).
Entries after “also recorded” stand apart in the source; their conditions may differ.

Assays:
SH-SY5Y cells = assay: MTS cytotoxicity assay in SH-SY5Y cells; type: cell-based, human; conditions: 72 h
Protocol: The cytotoxic potential of SERAAK2 was evaluated in two human-derived cell lines chosen for their physiological relevance: HepG2 (hepatocellular carcinoma) and SH-SY5Y (neuroblastoma). […] It is particularly noteworthy that the use of the SERAAK2 compound at a concentration of 30 µM reduces the number of viable cells below the level of the positive control (doxorubicin) at the same concentration (Table 3). […] Under the experimental conditions used, after 72 h of incubation, a fraction of doxorubicin-treated cells remains metabolically active and generates a low signal in the MTS assay. The enhanced signal reduction observed in the MTS assay for the tested compound, compared to doxorubicin, indicates strong cytotoxic activity leading to necrosis of the entire cell population.
An assessment of the cytotoxic potential of SERAAK2 was carried out utilizing the colorimetric MTS assay. This investigation was executed on both HepG2 and SH-SY5Y cell lines, adhering to an identical procedure. The cell lines, sourced from the American Type Culture Collection (Manassas, VA, USA), were cultured under standard conditions (5% CO2, 37 °C) in DMEM/F12 medium (#31330-038, ThermoFisher Scientific, Waltham, MA, USA). The medium was supplemented with 10% Fetal Bovine Serum (FBS, #A5256801, ThermoFisher Scientific) and a Penicillin–Streptomycin solution (#15140-122, ThermoFisher Scientific) until their use in the study. Cells within passage numbers 15 to 25 were plated in 96-well plates at a density of 5000 cells per well in 200 μL of medium and allowed to adhere during a 24 h incubation at 37 °C with 5% CO2. […] The plates were then subsequently returned to the 37 °C incubator, after which absorbance was recorded with a Spark microplate reader; this measurement occurred after 1 h for the HepG2 line and 3 h for the SH-SY5Y line. The ultimate cell viability percentage was determined by comparing results to the control wells, which represented 100% viability, and the wells treated with 10 μM doxorubicin, which were defined as 0% viability. […]

5-HT7 receptor = target: 5-HT7 receptor; design: method as in PMID 38619283; conditions: cited from earlier work
mice [1] = assay: Elevated plus maze (EPM) test; type: in vivo
Protocol: (§1) The investigated compound (SER2AAK2) was bought from Enamine (purity over 95%) and in all tests was administered intraperitoneally (i.p.), spread in a drop of Tween 80, and diluted with an aqueous solution of 0.5% methylcellulose (tylose) and injected 60 min before the tests in a volume of 10 mL/kg. Control groups received tylose injections of the same volume and via the same route of administration.
Anxiety behaviors were measured using the EPM test according to the Lister method. The apparatus consisted of four black-painted arms arranged in a plus-shaped configuration with a central platform (5 × 5 cm). Two opposing arms were open (30 × 5 cm), while the other two were enclosed (30 × 5 × 15 cm). The maze was elevated 38.5 cm above the floor and illuminated with dim, diffuse red light. Experiments were conducted in a quiet, dark room. […] The following parameters were recorded: time spent in the open arms, number of entries into the open arms, and total number of entries into both types of arms.

mice [2] = assay: Passive avoidance (PA) task, memory consolidation; type: in vivo; conditions: 7.5 mg/kg, retention phase, vs vehicle control
Protocol: as §1
The passive avoidance (PA) task measures a long-term memory, as it was reported by Venault et al.. The PA apparatus consists of a two-compartment acrylic box, one illuminated with fluorescent light (8 W) (10 cm × 13 cm × 15 cm) and another darkened (25 cm × 20 cm × 15 cm), connected by a guillotine door. Entrance of the animal to the darkened box was punished by an electric foot shock (0.15 mA for 2 s). The PA procedure was previously described. In particular, on the first day of the experiment [i.e., training (pre-test)], mice were placed individually into the illuminated compartment and allowed to explore this box. […] The latency time for entering the darkened compartment was recorded (TL1). […] The results were expressed as the latency index (LI), calculated by the following formula: TL1−TL2/TL1 where TL1 is the time needed to move to the dark compartment during a training session and TL2 is the time needed to re-enter the dark compartment, measured 24 h after TL1 (retention).

mice [3] = assay: Spontaneous locomotor activity; type: in vivo; conditions: 60 min before test
Protocol: as §1
(§2) Locomotor activity of the mice was assessed using the Opto-Varimex-4 Auto-Track system (Columbus Instruments, OH, USA). Each mouse was placed individually in a testing cage for 25 min—5 min for acclimatization, followed by 20 min of activity recording. (6a) The total distance traveled (in centimeters) was measured. Cages were cleaned with 10% ethanol between sessions.

mice [4] = assay: Amphetamine-induced hyperactivity; type: in vivo; conditions: 7.5 mg/kg i.p. 60 min before test, amphetamine 3 mg/kg 30 min later
Protocol: as §1, §2

mice [5] = assay: Motor coordination, chimney test; type: in vivo; conditions: 7.5 mg/kg i.p., 60 min before test, similar to control
Protocol: as §1
The effects of the SER2AAK2 compound were also measured in the rotarod and chimney tests. In the rotarod test, mice were evaluated for their ability to maintain balance on a constantly rotating rod (18 rpm) for 1 min. The chimney test involved placing a mouse in a horizontal polymer tube (3 cm diameter, 25 cm length). Once the mouse reached the far end, the tube was positioned vertically, requiring the animal to climb backwards to exit. Right motor coordination was defined as exiting the chimney within 60 s. Prior to testing, mice underwent a 3-day training. Only those animals that were able to stay on the rotating rod or leave the chimney within the required time were included in the study.

- time to leave the chimney (mice [5]): about 13 s
SMILES: OC(CNCCc1c[nH]c2ccccc12)COc1ccc(Oc2ccccc2)cc1 (stereo not drawn) [SERAAK2]
- cytotoxic effects in SH-SY5Y cells (SH-SY5Y cells; 0.3 µM): no cytotoxic effects
- Percentage Reduction in the Number of Viable SH-SY5Y Cells [Mean ± SEM] (SH-SY5Y cells; 30 µM): 108 ± 1%
- Ki (5-HT7 receptor): 914 ± 25 nM
- Elevated plus maze (EPM), open arm time and entries (mice [1]; 7.5 mg/kg): ↑ open arm time and entries (7.5 mg/kg)—anxiolytic effect
- EPM total number of entries into both open and closed arms (mice [1]; 7.5 mg/kg i.p.): remained unchanged
- EPM percentage of open arm entries (mice [1]; 7.5 mg/kg i.p., p < 0.01 vs control): significant increase
- EPM percentage of time spent in the open arms (mice [1]; 7.5 mg/kg i.p., p < 0.05 vs control): significant increase
- PA memory consolidation, latency index (mice [2]): did not significantly change the latency index; also recorded: no effect on memory consolidation
- Spontaneous locomotor activity (mice [3]; mice, 7.5 mg/kg i.p., 7.5 mg/kg): inactive; also recorded: no effect
- Spontaneous locomotor activity (mice [3]; mice, 60, 30 and 15 mg/kg i.p., 20 min recording): statistically significant reduction in locomotor activity; also recorded: reduced activity
- amphetamine-induced hyperactivity (mice [4]): did not significantly modify this hyperactivity; also recorded: no effect
